# From PubChem BioAssay (NCI)
#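 Five concentrations, 48 hours, 96-well plates. GI50 marks 50% less growth. The concentration for full growth arrest is given as TGI.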
# How the values were obtained:
# Assay in all cases: NCI-60 cell line screen, 48 h
# [1] = tested on: 786-0 renal
# [2] = tested on: A549 NSCLC
# [3] = tested on: DLD-1 colon
# [4] = tested on: DMS 114 small cell lung
# [5] = tested on: DMS 273 small cell lung
# [6] = tested on: HT29 colon
# [7] = tested on: K-562 leukemia
# [8] = tested on: NCI-H226 lung
# [9] = tested on: SF-539 CNS
# [10] = tested on: SF-268 CNS
# [11] = tested on: BT-549 breast
SMILES,TGI [1] [µM],TGI [2] [µM],TGI [3] [µM],TGI [4] [µM],TGI [5] [µM],TGI [6] [µM],TGI [7] [µM],TGI [8] [µM],TGI [9] [µM],TGI [10] [µM],GI50 [1] [µM],GI50 [2] [µM],GI50 [11] [µM],TGI [11] [µM],GI50 [6] [µM],GI50 [7] [µM],GI50 [8] [µM],GI50 [10] [µM],GI50 [9] [µM]
O=C(/C(=C/c1ccccc1)c1ccccc1)N1c2ccccc2CC1c1c[nH]c2ccccc12 (stereo not given),> 100,> 100,> 100,> 100,> 100,> 100,> 100,> 100,> 100,–,–,–,–,–,–,–,–,–,–
c1ccc(C2[C@@H]3CCCc4ccccc4C3=NN2c2ccccc2)cc1 (stereo not given in full),> 100,> 100,> 100,> 100,–,> 100,> 100,> 100,–,> 100,–,–,–,–,–,–,–,–,–
CCOC(=O)/N=c1/nc(N(C)C)ss1,> 100,> 100,> 100,> 100,> 100,> 100,> 100,> 100,> 100,> 100,–,–,–,–,–,–,–,–,–
COC(=O)C1CC(C(=O)OC)c2nc3cc(C)c(C)cc3nc21 (stereo not given),> 100,> 100,> 100,> 100,> 100,> 100,> 100,> 100,> 100,> 100,–,–,–,–,–,–,–,–,–
CN(C)CCNc1nc(-c2cccs2)cc(-c2cccs2)n1,30.4,32.4,55.1,33.6,24.4,22.2,36.5,30.5,28.5,–,–,–,–,–,–,–,–,–,–
CC(=O)CC(=O)/C=C/c1cccs1,> 100,> 100,> 100,> 100,–,> 100,> 100,> 100,> 100,> 100,–,–,–,–,–,–,–,–,–
Nc1ccc(C(=O)N/C(=C\c2cccc([N+](=O)[O-])c2)c2nc3c4c(ccc3[nH]2)C(=O)c2ccccc2C4=O)cc1,> 100,> 100,> 100,> 100,> 100,> 100,> 100,–,> 100,> 100,–,–,–,–,–,–,–,–,–
COc1ccc2nc3cccc(C(=O)NCCN(C)C)c3nc2c1,> 22.2,> 100,5.12,3.45,> 100,6.63,6.94,3.85,8.8,–,–,–,–,–,–,–,–,–,–
C[N+](C)(C)CC1CCCC/C1=N\O (stereo not given),> 100,> 100,> 100,> 100,> 100,> 100,> 100,–,> 100,> 100,–,–,–,–,–,–,–,–,–
CC[C@H](NC(=O)[C@H](CS(=O)(=O)CC1CC1)N[C@@H](c1ccc(F)cc1)C(F)(F)F)C(=O)C(=O)NC1CC1,> 100,> 100,–,–,–,> 100,> 100,> 100,> 100,> 100,> 100,> 100,> 100,> 100,> 100,> 100,> 100,> 100,> 100
OCC(O)C(OC1OC(CO)C(O)C(O)C1O)c1nn(-c2ccccc2)c2nc3cc(Cl)ccc3nc12 (stereo not given),> 100,–,> 100,> 100,–,> 100,> 100,–,> 100,> 100,–,–,–,–,–,–,–,–,–
